# According to US20050063931A1, “Hair-follicle treatment,in particular against hair loss” (priority 2001, published 2005):
# What was measured:
# [1] = tested on: hair follicle; assay: Cells in apoptosis in the hair follicle by TUNEL technique; format: in vivo, mice of the strain CBA/J; details: no stress + SP
# Procedure: The tests were carried out in vivo on mice of the strain CBA/J which were pregnant since, as is known, there is a close correlation between exposure to stress and an increase in the percentage of abortions. In order to determine the effect of stress on hair growth, the following biological and immunological parameters were measured: • the number of cells in apoptosis in the hair follicle, • the proliferation of keratinocytes in the hair follicle, • the activity of some immunocytes, in particular, of macrophages, mast cells, and γδT cells. In accordance with a well-established model for the study of stress, some mice were subjected to predetermined doses of ultrasound (sonic stress) for 7 days, to ascertain its impact both on the activity of the hair follicle and on the immune response of the perifollicular region. […] Upon completion of the above-mentioned treatments, the parameters listed above were measured again and compared with those measured in mice which had not been subjected to any treatment. The number of cells in apoptosis was measured by the TUNEL technique in a first region of the hair follicle comprising the infundibulum, the capsular germinal region, and the secondary germinal region (column 3), and in a second, more extensive region comprising, in addition to the first region, the epidermis and the parafollicular dermis (column 4).
# [2] = Abortions in pregnant mice (sonic stress model); format: in vivo, mice of the strain CBA/J; details: no stress + SP, pregnant CBA/J mice
# Procedure: (§1) The tests were carried out in vivo on mice of the strain CBA/J which were pregnant since, as is known, there is a close correlation between exposure to stress and an increase in the percentage of abortions. In accordance with a well-established model for the study of stress, some mice were subjected to predetermined doses of ultrasound (sonic stress) for 7 days, to ascertain its impact both on the activity of the hair follicle and on the immune response of the perifollicular region. Another group of mice was subjected to treatment with substance P (SP), and yet others to sonic stress treatment combined with the administration of a NK1-receptor antagonist substance (indicated SP-RA). Upon completion of the above-mentioned treatments, the parameters listed above were measured again and compared with those measured in mice which had not been subjected to any treatment.
# [3] = tested on: keratinocytes in the hair follicle; assay: Proliferation of keratinocytes in the hair follicle, positive Ki67 cells (immunohistochemical); format: in vivo, mice of the strain CBA/J; details: no stress + SP
# Procedure: as §1, with “abortions. In order to determine the effect of stress on hair growth, the following biological and immunological parameters were measured: • the number of cells in apoptosis in the hair follicle, • the proliferation of keratinocytes in the hair follicle, • the activity of some immunocytes, in particular, of macrophages, mast cells, and γδT cells.” for “abortions.”, “treatment. The proliferation of the keratinocytes was measured by an immunohistochemical technique by measurement of the positive Ki67 cells (column 5).” for “treatment.”
# [4] = tested on: hair follicle; assay: Extent of progress of the hair cycle (HCS) 16 days after epilation, FIG. 1; format: in vivo, mice; details: group C, substance P, no stress
# Description: The extent of progress of the cycle in this case was an index of the rate at which the hair follicle progresses from the anagen to the catagen.
# With reference to the histogram of FIG. 1, appended to the present description: • the first group of mice (A) underwent no treatment, • the second group (B) was subjected to sonic stress, • the third group (C) was subjected to treatment with substance P, • the fourth group (D) was subjected to treatment with an NK1-receptor antagonist substance, and • the fifth group (E) was subjected to combined stress and NK1-receptor antagonist substance treatment.
# [5] = tested on: mast cells; assay: Mast-cell activity, degranulated mast cells; format: in vivo, mice of the strain CBA/J; details: no stress + SP
# Procedure: as §1, with “abortions. In order to determine the effect of stress on hair growth, the following biological and immunological parameters were measured: • the number of cells in apoptosis in the hair follicle, • the proliferation of keratinocytes in the hair follicle, • the activity of some immunocytes, in particular, of macrophages, mast cells, and γδT cells.” for “abortions.”, “treatment. Mast-cell activity was measured by measuring the percentage of degranulated mast cells relative to the total mast cells present in the field of vision (column 7).” for “treatment.”
# [6] = tested on: hair follicle; details: treatment during telogen stage; cited from earlier work
# [7] = tested on: γδT cells; assay: γδT-cell presence (immunohistochemical); format: in vivo, mice of the strain CBA/J; details: no stress + SP
# Procedure: as §1, with “abortions. In order to determine the effect of stress on hair growth, the following biological and immunological parameters were measured: • the number of cells in apoptosis in the hair follicle, • the proliferation of keratinocytes in the hair follicle, • the activity of some immunocytes, in particular, of macrophages, mast cells, and γδT cells.” for “abortions.”, “treatment. γδT-cell presence was detected by an immunohistochemical technique (column 8).” for “treatment.”
# [8] = tested on: perifollicular macrophages; assay: Macrophage presence by expression of Class II MHC glycoprotein; format: in vivo, mice of the strain CBA/J; details: no stress + SP
# Procedure: as §1, with “abortions. In order to determine the effect of stress on hair growth, the following biological and immunological parameters were measured: • the number of cells in apoptosis in the hair follicle, • the proliferation of keratinocytes in the hair follicle, • the activity of some immunocytes, in particular, of macrophages, mast cells, and γδT cells.” for “abortions.”, “treatment. Macrophage presence was investigated by detection of the expression of Class II MHC glycoprotein (column 6).” for “treatment.”
substance,measurement,setting,value
Substance P [SP],"TUNEL+ cells in apoptosis, first region of the hair follicle (infundibulum, capsular germinal region, secondary germinal region)",[1],8.0
same,"TUNEL+ cells in apoptosis, second more extensive region (first region plus epidermis and parafollicular dermis)",[1],9.0
same,% Abortions,[2],19%
same,Ki67+ cells (proliferation of keratinocytes),[3],7.7
same,Extent of progress of the cycle (HCS): premature catagen,[4],an effect also well simulated by substance P
same,MC (percentage of degranulated mast cells relative to total mast cells in the field of vision),[5],7.9
same,Effect on hair follicle treated during the telogen stage,[6],induced to go on to the subsequent anagen stage
same,γδ TCR+ (γδT-cell presence),[7],1.3
same,MHC II (macrophage presence),[8],11.0
